From US12528795B2, “Crystal form of multi-substituted benzene ring compound maleate, and preparation method therefor and use thereof” (EVOPOINT BIOSCIENCES CO., LTD., priority 2020, dated 2026)
Converted amounts (≈) assume the structure as drawn. “Also recorded” adds a separate entry of the source. Where two headings read alike, the source gives them in different places.

Columns and labels:
Type in all cases: physicochemical
[1] = Hygroscopicity by dynamic vapor sorption (DVS); settings: for Crystal form after DVS test: XRPD after DVS 0% RH-95% RH-0% RH, 25° C.
Experimental: Dynamic vapor sorption (DVS) curves were acquired on a DVS Intrinsic in Surface Measurement Systems (SMS). The relative humidity at 25° C. was corrected with the deliquescence points of LiCl, Mg(NO3)2 and KCl.
After the mass change rate over time was less than 0.002%, the moisture absorption characteristics of the samples when the humidity changed from 0% RH to 95% RH were tested, as well as the moisture desorption characteristics of the samples when the humidity changed from 0% RH to 95% RH to 0% RH were tested, and the humidity change step was 10% RH. The value of the mass change rate dm/dt less than 0.002% was considered as balance equilibration, the mass change rate within 10 min less than 0.002%/min was considered as the equilibration standard during the testing process, and the maximum equilibration time was 3 h. The isothermal moisture sorption/desorption characteristics under this test condition were determined and XRPD test was performed on the samples after the DVS test.

[2] = Physical and chemical stability in open vials (HPLC purity, XRPD); settings: for Crystal form change: XRPD; for Stability sample purity (area percentage): initial purity 98.86
Experimental: (§1) The purity and solubility of the samples in the test were tested by Waters ultra performance liquid chromatograph, and the conditions are shown in Table 6:
The solid samples placed under different conditions were tested for purity by HPLC to assess the chemical stability and for crystal form by XRPD to assess the physical stability.

[3] = Suspension competition experiments on crystal form A and hydrate crystal forms C and D of maleate at different water activities (XRPD); settings: for Result (crystal form by XRPD after suspension competition): H2O
Experimental: The mixtures were stirred at room temperature for 24 h, and then filtered to obtain saturated solutions. About 10 mg of a crystal form A/C/D of maleate was added to each saturated solution, the mixtures were suspended and stirred at room temperature for 2 days, and then subjected to the XRPD test. Two 5-mL vials were taken, water (2 mL) was added to each vial, and excessive crystal form B of maleate was added. The mixtures were stirred at 50° C./80° C. for 20 h/2 h, and then filtered to obtain saturated solutions. About 10 mg of the crystal form A/C/D of maleate was added to each saturated solution, and the mixtures were suspended and stirred at 50° C./80° C. for 1 day/3.5 h, and then subjected to the XRPD test.

[4] = Suspension competition experiments on anhydrous crystal forms A and B of maleate (XRPD); settings: for Results (crystal form by XRPD after suspension competition): 3 days
Experimental: Suspention competition experiments on anhydrous crystal forms A and B of maleate were conducted as follows: Four 5-mL vials were taken, IPA (2 mL) and IPAc (2 mL) were added to each vial, and excessive crystal form B of maleate was added. The mixtures were stirred at room temperature/50° C. for 24 h, and then filtered to obtain saturated solutions of the maleate in IPA and IPAc. About 10 mg of a crystal form A/B of maleate was added to each saturated solution, the mixtures were suspended and stirred at room temperature/50° C. for 3 days, and then subjected to the XRPD test.

[5] = Fluidity (angle of repose of a single API); settings: D90 controlled at 200 μm
[6] = Dynamic solubility in SGF, FaSSIF, FeSSIF and water at 37° C.; settings: thermodynamic from solid, sampling at 1, 2, 4 and 24 h, time point of the value not stated
Experimental: as §1
In the test, 45 mg of the solid and 4.5 mL of the vehicle were mixed in a 5 mL centrifuge tube, then the centrifuge tube was sealed and fixed on a rotating disk at a rotating speed of 40 rpm, and the rotating disk was placed in a 37° C. incubator. Sampling was performed at four time points of 1, 2, 4 and 24 h on equilibration, followed by filtration. The filtrate was separated at each sampling time point to test the concentration and pH, and the solid was tested for crystal form.

[7] = Crystal form transformation on heating, cooling or drying
Experimental: The obtained sample was determined to be a crystal form E of maleate of the multi-substituted benzene ring compound of formula II by X-ray powder diffraction.

[8] = Suspension competition experiments on crystal form A and hydrate crystal forms C and D of maleate at different water activities (XRPD); settings: room temperature, 3.5 h
[9] = open vial, 25° C./60% RH, one week
[10] = open vial, 40° C./75% RH, one week
[11] = FaSSIF, FaSSIF, read-out: Dynamic solubility in FaSSIF
[12] = FeSSIF, FeSSIF, read-out: Dynamic solubility in FeSSIF
[13] = SGF, simulated gastric fluid, SGF, read-out: Dynamic solubility in SGF
[14] = water, water, read-out: Dynamic solubility in water

CCN(c1cc(O[C@H]2C[C@H](N3CCCCC3)C2)cc(C(=O)NCc2c(C)cc(C)[nH]c2=O)c1C)C1CCOCC1.O=C(O)/C=C\C(=O)O [Crystal form A of maleate]
DVS vapor sorption (25° C./80% RH, %) [1]: 0.4% | Crystal form after DVS test [1]: Unchanged | Crystal form after DVS test ([1]; listed as crystal form A of maleate): crystal form transformation did not occur | Initial purity (area percentage) ([2]; before storage): 98.86 area percentage | Crystal form change [2, 9]: Unchanged | Stability sample purity (area percentage) [2, 9]: 98.79 area percentage | Crystal form change [2, 10]: Unchanged | Stability sample purity (area percentage) [2, 10]: 98.79 area percentage | Physical and chemical stability under three test conditions ([2]; open vial, 60° C. one day, 25° C./60% RH and 40° C./75% RH one week): did not undergo crystal form transformation and chemical purity decrease; also recorded: no crystal form transformation and chemical purity decrease | Crystal form change ([2]; open vial, 60° C., 24 h): Unchanged | Stability sample purity (area percentage) ([2]; open vial, 60° C., 24 h): 98.79 area percentage | Stability ranking among the 5 crystal forms of maleate ([3]; conclusion from the examples and suspension competition experiments): most stable among the 5 crystal forms of maleate | Relative stability of crystal forms A and B of maleate ([4]; room temperature/50° C.): more stable than the crystal form B | Angle of repose of a single API [5]: about 40 ° | Angle of repose of a single API ([5]; as printed in b231): about 400 | solubility [6, 11]: 4150 µg/mL | solubility [6, 12]: > 7350 µg/mL | solubility [6, 13]: ≥ 6000 µg/mL | solubility [6, 14]: 6990 µg/mL

CCN(c1cc(O[C@H]2C[C@H](N3CCCCC3)C2)cc(C(=O)NCc2c(C)cc(C)[nH]c2=O)c1C)C1CCOCC1.O=C(O)/C=C\C(=O)O [Crystal form E of maleate]
Crystal form transformation after cooling to room temperature ([7]; form obtained only at high temperature, then cooled to room temperature): retransformed into the crystal form A of maleate

CCN(c1cc(O[C@H]2C[C@H](N3CCCCC3)C2)cc(C(=O)NCc2c(C)cc(C)[nH]c2=O)c1C)C1CCOCC1.O=C(O)/C=C\C(=O)O [Crystal form C of maleate]
Crystal form transformation by suspending and stirring ([3]; ethanol solution with a water activity of 0.2 or absolute ethanol, room temperature): transformed into the crystal form A | Crystal form transformation after drying ([7]; dried at 170° C.): transformed into the crystal form A

CCN(c1cc(O[C@H]2C[C@H](N3CCCCC3)C2)cc(C(=O)NCc2c(C)cc(C)[nH]c2=O)c1C)C1CCOCC1 [Free crystal form D]
DVS vapor sorption (25° C./80% RH, %) [1]: 1.3% | solubility [6, 11]: 420 µg/mL (≈ 763 µM) | solubility [6, 12]: > 7350 µg/mL | solubility [6, 13]: 6980 µg/mL (≈ 12700 µM) | solubility [6, 14]: 16 µg/mL (≈ 29.1 µM)

CCN(c1cc(O[C@H]2C[C@H](N3CCCCC3)C2)cc(C(=O)NCc2c(C)cc(C)[nH]c2=O)c1C)C1CCOCC1.O=C(O)CCC(=O)O [Crystal form A of succinate]
DVS vapor sorption (25° C./80% RH, %) [1]: 2.1% | solubility [6, 11]: 5390 µg/mL | solubility [6, 12]: > 7350 µg/mL | solubility [6, 13]: ≥ 6000 µg/mL | solubility [6, 14]: > 8440 µg/mL

CCN(c1cc(O[C@H]2C[C@H](N3CCCCC3)C2)cc(C(=O)NCc2c(C)cc(C)[nH]c2=O)c1C)C1CCOCC1.O=C(O)/C=C\C(=O)O [Crystal form A/B of maleate]
Results (crystal form by XRPD after suspension competition) ([4]; IPA, 50° C.): Crystal form A of maleate | Results (crystal form by XRPD after suspension competition) ([4]; IPA, room temperature): Crystal form A of maleate | Results (crystal form by XRPD after suspension competition) ([4]; IPAc, 50° C.): Crystal form A of maleate | Results (crystal form by XRPD after suspension competition) ([4]; IPAc, room temperature): Crystal form A of maleate

Br.CCN(c1cc(O[C@H]2C[C@H](N3CCCCC3)C2)cc(C(=O)NCc2c(C)cc(C)[nH]c2=O)c1C)C1CCOCC1 [Crystal form A of hydrobromide]
DVS vapor sorption (25° C./80% RH, %) [1]: 5.2% | solubility [6, 11]: 1390 µg/mL | solubility [6, 12]: 5330 µg/mL | solubility [6, 14]: 4260 µg/mL

CCN(c1cc(O[C@H]2C[C@H](N3CCCCC3)C2)cc(C(=O)NCc2c(C)cc(C)[nH]c2=O)c1C)C1CCOCC1.O=C(O)/C=C\C(=O)O [Crystal form A/C/D of maleate]
Result (crystal form by XRPD after suspension competition) ([3]; 50° C., 1 day): Crystal form C of maleate | Result (crystal form by XRPD after suspension competition) ([3]; 80° C., 3.5 h): Crystal form C of maleate | Result (crystal form by XRPD after suspension competition) ([8]; EtOH): Crystal form A of maleate | Result (crystal form by XRPD after suspension competition) ([8]; EtOH/H2O (70:30, aw = 0.8)): Crystal form C of maleate | Result (crystal form by XRPD after suspension competition) ([8]; EtOH/H2O (82:18, aw = 0.6)): Crystal form C of maleate | Result (crystal form by XRPD after suspension competition) ([8]; EtOH/H2O (91:9, aw = 0.4)): Crystal form C of maleate | Result (crystal form by XRPD after suspension competition) ([8]; EtOH/H2O (96:4, aw = 0.2)): Crystal form A of maleate | Result (crystal form by XRPD after suspension competition) ([8]; H2O): Crystal form C of maleate
